In patent US20120115896A1, “ISOGENIC HUMAN CELL LINES COMPRISING MUTATED CANCER ALLELES AND PROCESS USING THE CELL LINES” (priority 2008, published 2012):
Like-named read-outs stand apart in the source and are kept apart here.

What was measured:
[1] = test system: hTERT-HME1 DKI cells carrying PIK3CA (H1047R) and EGFR (delE746-A750); experiment: Drug assay: cell viability by ATP content (96 h), DKI versus parental cells; ΔKI pharmarray analysis
[2] = test system: hTERT-HME1 cells carrying KRAS (G13D) KI; experiment: Drug assay: cell viability by ATP content (96 h), KI versus parental cells; ΔKI pharmarray analysis; details: for pharmarray: differential response of KRAS mutated cells versus WT: hTERT-HME1, FIG. 5H
[3] = test system: hTERT-HME1 cells carrying BRAF (V600E) KI; experiment: as above; details: for pharmarray: differential response of BRAF mutated cells versus WT: hTERT-HME1, FIG. 5H
[4] = test system: hTERT-HME1 cells carrying EGFR (delE746-A750) KI; experiment: Drug assay: cell viability by ATP content (CellTiter-Glo, 96 h), KI versus parental cells; ΔKI pharmarray analysis
[5] = test system: hTERT-HME1 cells carrying PIK3CA (E545K and H1047R) KI; experiment: Drug assay: cell viability by ATP content (96 h) and Hoechst/propidium iodide staining, KI versus parental cells; ΔKI pharmarray analysis

O=c1[nH]cc(F)c(=O)[nH]1 [5-FU]
ΔKI PIK3CA + EGFR [1]: 0
ΔKI KRAS [2]: 0
ΔKI BRAF ([3]; listed as OGC-083): 0
ΔKI EGFR [4]: 0
ΔKI PIK3CA [5]: 0

C=CCNC1=C2C[C@@H](C)C[C@H](OC)[C@H](O)[C@@H](C)/C=C(\C)[C@H](OC(N)=O)[C@@H](OC)/C=C\C=C(/C)C(=O)NC(=CC1=O)C2=O [17-AAG, 17-Allylamino geldanamycin]
ΔKI PIK3CA + EGFR [1]: 0
ΔKI PIK3CA + EGFR ([1]; Log(M) −5.70): 1.18
ΔKI PIK3CA + EGFR ([1]; Log(M) −6.70): 0
ΔKI BRAF [3]: 0
ΔKI BRAF ([3]; Log(M) −5.70): 0.08
ΔKI BRAF ([3]; Log(M) −6.70): 0
ΔKI EGFR [4]: −11.7
ΔKI EGFR ([4]; Log(M) −5.70): 0
ΔKI EGFR ([4]; Log(M) −6.70): 0
pharmarray: differential response of EGFR mutated cells versus WT ([4]; hTERT-HME1, FIG. 5B, 5E): less susceptible than their WT counterpart
ΔKI PIK3CA [5]: 0
ΔKI PIK3CA ([5]; Log(M) −5.70): 3
ΔKI PIK3CA ([5]; Log(M) −6.70): 0

CO[C@H]1/C=C\C=C(/C)C(=O)NC2=CC(=O)C(NCCN(C)C)=C(C[C@@H](C)C[C@H](OC)[C@H](O)[C@@H](C)/C=C(\C)[C@@H]1OC(N)=O)C2=O [17-DMAG]
ΔKI PIK3CA + EGFR ([1]; Log(M) −6.19): 1.4
ΔKI PIK3CA + EGFR ([1]; Log(M) −6.89): 4.46
ΔKI PIK3CA + EGFR ([1]; Log(M) −7.00): 0
ΔKI PIK3CA + EGFR ([1]; Log(M) −7.40): −0.12
ΔKI PIK3CA + EGFR ([1]; Log(M) −7.70): 0
ΔKI PIK3CA + EGFR ([1]; Log(M) −8.10): −1.02
ΔKI PIK3CA + EGFR ([1]; Log(M) −8.40): 0
ΔKI KRAS ([2]; Log(M) −6.19): 0
ΔKI KRAS ([2]; Log(M) −6.89): 0
ΔKI KRAS ([2]; Log(M) −7.00): 0
ΔKI KRAS ([2]; Log(M) −7.40): 0
ΔKI KRAS ([2]; Log(M) −7.70): 0
ΔKI KRAS ([2]; Log(M) −8.10): 0
ΔKI KRAS ([2]; Log(M) −8.40): 0
ΔKI BRAF ([3]; Log(M) −6.19): 0
ΔKI BRAF ([3]; Log(M) −6.89): 0
ΔKI BRAF ([3]; Log(M) −7.00): 0
ΔKI BRAF ([3]; Log(M) −7.40): 0
ΔKI BRAF ([3]; Log(M) −7.70): 0
ΔKI BRAF ([3]; Log(M) −8.10): 0
ΔKI BRAF ([3]; Log(M) −8.40): 0
ΔKI EGFR ([4]; Log(M) −6.19): −1.5
ΔKI EGFR ([4]; Log(M) −6.89): −12.5
ΔKI EGFR ([4]; Log(M) −7.00): 0
ΔKI EGFR ([4]; Log(M) −7.40): 0
ΔKI EGFR ([4]; Log(M) −7.70): −8.56
ΔKI EGFR ([4]; Log(M) −8.10): 0
ΔKI EGFR ([4]; Log(M) −8.40): 0
pharmarray: differential response of EGFR mutated cells versus WT ([4]; hTERT-HME1, FIG. 5B, 5E): less susceptible than their WT counterpart
ΔKI PIK3CA ([5]; Log(M) −6.19): 0
ΔKI PIK3CA ([5]; Log(M) −6.89): 0
ΔKI PIK3CA ([5]; Log(M) −7.00): 0
ΔKI PIK3CA ([5]; Log(M) −7.40): 0
ΔKI PIK3CA ([5]; Log(M) −7.70): 0
ΔKI PIK3CA ([5]; Log(M) −8.10): 0
ΔKI PIK3CA ([5]; Log(M) −8.40): 0

CCCCC/C=C\C/C=C\C/C=C\C/C=C\CCCC(=O)Nc1ccc(O)cc1 [AM404]
ΔKI PIK3CA + EGFR [1]: 0
ΔKI PIK3CA + EGFR ([1]; Log(M) −4.70): 0
ΔKI KRAS [2]: 0
ΔKI KRAS ([2]; Log(M) −4.70): 0
ΔKI BRAF [3]: −0.12
ΔKI BRAF ([3]; Log(M) −4.70): −1.68
ΔKI EGFR [4]: 0
ΔKI EGFR ([4]; Log(M) −4.70): 0
ΔKI PIK3CA [5]: 0
ΔKI PIK3CA ([5]; Log(M) −4.70): 0

CC(C)c1c(C(=O)Nc2ccccc2)c(-c2ccccc2)c(-c2ccc(F)cc2)n1CC[C@@H](O)C[C@@H](O)CC(=O)[O-].CC(C)c1c(C(=O)Nc2ccccc2)c(-c2ccccc2)c(-c2ccc(F)cc2)n1CC[C@@H](O)C[C@@H](O)CC(=O)[O-].[Ca+2] [Atorvastatin Ca]
ΔKI PIK3CA + EGFR ([1]; Log(M) −5.25): 0
ΔKI PIK3CA + EGFR ([1]; Log(M) −5.85): 0
ΔKI PIK3CA + EGFR ([1]; Log(M) −6.46): 0
ΔKI KRAS ([2]; Log(M) −5.25): 0
ΔKI KRAS ([2]; Log(M) −5.85): 0
ΔKI KRAS ([2]; Log(M) −6.46): 0
ΔKI BRAF ([3]; Log(M) −5.25): 0
ΔKI BRAF ([3]; Log(M) −5.85): −2.6
ΔKI BRAF ([3]; Log(M) −6.46): 0
ΔKI EGFR ([4]; Log(M) −5.25): 0
ΔKI EGFR ([4]; Log(M) −5.85): 0
ΔKI EGFR ([4]; Log(M) −6.46): 0
ΔKI PIK3CA ([5]; Log(M) −5.25): 0
ΔKI PIK3CA ([5]; Log(M) −5.85): 9.44
ΔKI PIK3CA ([5]; Log(M) −6.46): 0

CN(C)CCCn1cc(C2=C(c3c[nH]c4ccccc34)C(=O)NC2=O)c2ccccc21 [Bisindolylmaleimide I]
ΔKI PIK3CA + EGFR [1]: 0
ΔKI PIK3CA + EGFR ([1]; Log(M) −5.70): 0
ΔKI KRAS [2]: 0
ΔKI KRAS ([2]; Log(M) −5.70): 0
ΔKI BRAF [3]: 0
ΔKI BRAF ([3]; Log(M) −5.70): 0
ΔKI EGFR [4]: 0
ΔKI EGFR ([4]; Log(M) −5.70): 0
ΔKI PIK3CA [5]: 0
ΔKI PIK3CA ([5]; Log(M) −5.70): 0

N.N.[Cl][Pt][Cl] [Cisplatin]
ΔKI PIK3CA + EGFR ([1]; Log(M) −4.70): 0
ΔKI PIK3CA + EGFR ([1]; Log(M) −5.00): 4.9
ΔKI PIK3CA + EGFR ([1]; Log(M) −5.70): 2.16
ΔKI PIK3CA + EGFR ([1]; Log(M) −6.00): 0.7
ΔKI PIK3CA + EGFR ([1]; Log(M) −6.70): 0
ΔKI PIK3CA + EGFR ([1]; Log(M) −7.00): −1.32
ΔKI KRAS ([2]; Log(M) −4.70): 0
ΔKI KRAS ([2]; Log(M) −5.00): 0
ΔKI KRAS ([2]; Log(M) −5.70): 0
ΔKI KRAS ([2]; Log(M) −6.00): 0
ΔKI KRAS ([2]; Log(M) −6.70): 0
ΔKI KRAS ([2]; Log(M) −7.00): 0
ΔKI BRAF ([3]; Log(M) −4.70): 3.82
ΔKI BRAF ([3]; Log(M) −5.00): 0
ΔKI BRAF ([3]; Log(M) −5.70): 7.62
ΔKI BRAF ([3]; Log(M) −6.00): 0
ΔKI BRAF ([3]; Log(M) −6.70): 0
ΔKI BRAF ([3]; Log(M) −7.00): 0
ΔKI EGFR ([4]; Log(M) −4.70): 0
ΔKI EGFR ([4]; Log(M) −5.00): 4.84
ΔKI EGFR ([4]; Log(M) −5.70): 0
ΔKI EGFR ([4]; Log(M) −6.00): 0
ΔKI EGFR ([4]; Log(M) −6.70): 0
ΔKI EGFR ([4]; Log(M) −7.00): 0
ΔKI PIK3CA ([5]; Log(M) −4.70): 0
ΔKI PIK3CA ([5]; Log(M) −5.00): 0
ΔKI PIK3CA ([5]; Log(M) −5.70): 0
ΔKI PIK3CA ([5]; Log(M) −6.00): 0
ΔKI PIK3CA ([5]; Log(M) −6.70): 0
ΔKI PIK3CA ([5]; Log(M) −7.00): 0

c1cc(-c2cnn3cc(-c4ccc(OCCN5CCCCC5)cc4)cnc23)ccn1 [Compound C]
ΔKI PIK3CA + EGFR [1]: 0
ΔKI PIK3CA + EGFR ([1]; Log(M) −4.70): 0
ΔKI KRAS [2]: 0
ΔKI KRAS ([2]; Log(M) −4.70): 0
ΔKI BRAF [3]: 0
ΔKI BRAF ([3]; Log(M) −4.70): 0
ΔKI EGFR [4]: 0
ΔKI EGFR ([4]; Log(M) −4.70): 0
ΔKI PIK3CA [5]: 0
ΔKI PIK3CA ([5]; Log(M) −4.70): 0

CC/C(=C(\c1ccc(O)cc1)c1ccc(OCCN(C)C)cc1)c1ccccc1 [Tamoxifen 4-Hydroxy-(Z)]
ΔKI KRAS [2]: 0
ΔKI BRAF [3]: 0

COc1cc2ncnc(Nc3ccc(F)c(Cl)c3)c2cc1OCCCN1CCOCC1 [gefitinib, Gefitinib]
pharmarray: differential response of KRAS mutated cells versus WT [2]: resistant
pharmarray: differential response of BRAF mutated cells versus WT [3]: resistant

O=c1c(-c2ccc(O)cc2)coc2cc(O)cc(O)c12 [genistein, Genistein]
pharmarray: differential response of EGFR mutated cells versus WT [4]: EGFR sensitive drug cluster

COc1ccc2c(c1)c(CC(=O)O)c(C)n2C(=O)c1ccc(Cl)cc1 [indomethacin, Indomethacin]
extended analysis of effect on PIK3CA KI versus WT cells (viability, apoptosis) ([5]; hTERT-HME1, 96 h, ATP assay, Hoechst/propidium iodide, FIG. 19): acts preferentially on cells carrying the PIK3CA mutation with both anti-proliferative and pro-apoptotic effects
pharmarray: differential response of PIK3CA mutated cells versus WT ([5]; hTERT-HME1, FIG. 5G): unexpectedly active on PIK3CA mutated cells

CC[C@H](C)C(=O)O[C@H]1C[C@@H](C)C=C2C=C[C@H](C)[C@H](CC[C@@H]3C[C@@H](O)CC(=O)O3)[C@H]21 [lovastatin, Lovastatin]
pharmarray: differential response of BRAF mutated cells versus WT [3]: more resistant

CC[C@H](C)C(=O)O[C@H]1CCC=C2C=C[C@H](C)[C@H](CC[C@@H]3C[C@@H](O)CC(=O)O3)[C@H]21 [mevastatin, Mevastatin]
pharmarray: differential response of BRAF mutated cells versus WT [3]: more resistant

CC(C)c1nc(N(C)S(C)(=O)=O)nc(-c2ccc(F)cc2)c1/C=C/[C@@H](O)C[C@@H](O)CC(=O)O [rosuvastatin, Rosuvastatin Ca]
pharmarray: differential response of BRAF mutated cells versus WT [3]: more resistant

Erlotinib mesylate
sensitization in DKI cells containing both EGFR and PIK3CA alterations [1]: abrogates the sensitization seen with the EGFR KI alone
pharmarray: differential response of KRAS mutated cells versus WT [2]: resistant
pharmarray: differential response of BRAF mutated cells versus WT [3]: resistant
growth inhibition of EGFR delE746-A750 KI versus WT cells [4]: preferentially inhibited the growth
pharmarray: differential response of EGFR mutated cells versus WT [4]: inhibit EGFR mutated cells selectively
IC50 ([4]; read-out: IC50 values of erlotinib in EGFR mutant cells): 250 ± 140 nM

Sunitinib Maleate
ΔKI KRAS ([2]; Log(M) −4.82): 0
ΔKI KRAS ([2]; Log(M) −5.30): 0
ΔKI KRAS ([2]; Log(M) −5.78): 0
ΔKI BRAF ([3]; Log(M) −4.82): 0
ΔKI BRAF ([3]; Log(M) −5.30): 4.42
ΔKI BRAF ([3]; Log(M) −5.78): 0
